According to patent publication US20020147136A1, “Compounds for targeting endothelial cells, compositions containing the same and methods for their use” (priority 2000, published 2002):
Residues, ends and D or L forms follow the SMILES beside them.

Experiments:
HAEC = experiment: TKPPR-bead binding to endothelial cells under flow; format: cell-based, human; settings: flow 1.91 mL/min, 37° C.
Method: Circular 40 mm diameter glass coverslips (Bioptechs, Cat No. 40-1313-0319) were first derivative by dipping in 3-aminopropyltriethoxysilane (Pierce, Cat No. 80370ZZ), 20% in acetone (HPLC grade, Sigma Aldrich Cat No. 27,072-5), rinsed in acetone, and air-dried. After autoclaving, the derivatized coverslips were placed into 60 mm round, sterile culture dishes, one coverslip per dish. Five mL of a Collagen I solution (Becton Dickinson, Cat No. 40236), 41.6 μg/mL in 20 mM acetic acid (adjusted to pH 6.7 with NaOH), was added to each coverslip-containing dish. After 15 min, 0.25 mL of 11.5 mg/mL bis(sulfosuccinimidyl) suberate (Pierce, Cat No. 21580ZZ) was added to each dish and mixed in by swirling. After a 105-minute incubation, the dishes were drained and 5 mL of sterile TBS (20 mM Tris-HCl, pH 7.5, 140 mM NaCl) was added to each dish. […]
Coverslips containing confluent HAEC were mounted into a Bioptechs FCS2 parallel plate flow cell mounted on an Olympus IMT-2 inverted microscope. […] Wall shear stress T, in dynes/cm^2, was calculated using the equation (Lawrence et al., Blood 75:227-237, 1990): [formula]
Bead binding of equal numbers of red fluorescent beads conjugated with TKPPR and green fluorescent beads conjugated with glycine was monitored after increasing lengths of perfusion and variable lengths of subsequent washing with the same solution lacking microspheres.

KDR/FIk-1 receptor = experiment: Inhibition of phospho-tyrosine activation of KDR by VEGF in HUVEC; format: cell-based, human; settings: 200 μM
Method: The ability of various compositions comprising TKPPR monomers or multimers to inhibit phospho-tyrosine activation of the KDR/FIk-1 receptor by VEGF was evaluated using HUVECs. Nine 100 mm confluent dishes of cultured HUVEC cells were serum starved overnight in basal (EBM) medium without any additives. The next morning the plates were divided into three groups as follows:
1. 3 Plates had their medium changed to fresh EBM medium with no additions.
After 5 minutes at 37° C. the dishes were all drained and quickly washed 3 times with cold D-PBS with Ca and Mg (Life Technologies). Lysates were prepared from each treatment group using Triton X-100 lysis buffer (20 mM Tris pH 8.0, 137 mM NaCl, 10% glycerol, 1% Triton X-100, 2 mM EDTA Supplemented with 1 mM PMSF, […] Leupeptin and Aprotinin, 1 mM sodium orthovanadate, 50 mM sodium pyrophosphate, 100 mM sodium fluoride.) The pooled lysates from each group were precleared using Protein A beads from Sigma then incubated overnight with anti-KDR antibody (Sc-504 from Santa Cruz Biotech). The immune complexes were brought down by adding fresh Protein A beads. […] The intensity of phosphorylated (active) KDR for each treatment group was determined from the PY-20 blot then normalized to the total amount of KDR present as determined by re-probing with anti-KDR (sc-315).

[1] = tested on: Human Umbilical Vein Endothelial Cells (HUVECS)
Method: The ability of compositions comprising a TKPPR monomer and a TKPPR multimer to inhibit ^125I-VEGF binding to endothelial cells was evaluated using HUVECs.

CC(O)C(N)C(=O)NC(CCCCN)C(=O)N1CCCC1C(=O)N1CCCC1C(=O)NC(CCCNC(=N)N)C(=O)O [TKPPR, L-Arginine, L-threonyl-L-lysyl-L-prolyl-L-prolyl] (H-TKPPR-OH; configuration not given here)
Beads bound at 1.53 dynes/cm^2 (HAEC): 86 | effect on the ability of VEGF to activate KDR (KDR/FIk-1 receptor): no effect | IC50 [1]: 250 µM
